Values of other authors as cited in patent publication US20260245667A1, “EFFICIENT DETECTION OF DECENTRALIZED BIOMARKERS OF GROUPS OF DNA SEQUENCES IN MICROBIOME DNA” (ALPHABIOME AI LTD, priority 2023, published 2026).

Tests used:
[1] = tested on: ruminal methane production; conditions: meta-analyses

Structure (SMILES)	methanogenesis inhibition, reduction on average in dairy [1]	mitigation of methane emissions in vitro (methane emissions; in vitro)	levels of propionate and butyrate (methane emissions; partial incubation periods)
CC[C@@]1([C@@H]2O[C@@H]([C@H]3O[C@@](O)(CO)[C@H](C)C[C@@H]3C)C[C@@H]2C)CC[C@H]([C@]2(C)CC[C@]3(C[C@H](O)[C@@H](C)[C@@H]([C@@H](C)[C@@H](OC)[C@H](C)C(=O)O)O3)O2)O1 [Monensin]	up to 10%		
C=CCS[S+]([O-])CC=C (stereo not drawn) [Allicin]		up to 38%	elevate
